Paper PMC11606603, “The membrane domains of mammalian adenylyl cyclases are lipid receptors” (eLife, 2024)
Several values for one entry are separate records, joined by “and”; a condition that tells them apart may be missing. Identical values can stand only once.

Tested on: mAC1-C1/mAC2-C2
Test: AC assay, Gsα-stimulated soluble catalytic dimer
Assay type: biochemical
Protocol: In a volume of 10 μl, AC activities were measured using 1 mM ATP, 2 mM MgCl2, 3 mM creatine phosphate, 60 μg/ml creatine kinase, and 50 mM MOPS pH 7.5. The cAMP assay kit from Cisbio (Codolet, France) was used for detection according to the supplier’s instructions. For each assay, a cAMP standard curve was established. EC50 and IC50 values were calculated by GraphPad Prism version 8.4.3 for Windows, GraphPad Software, San Diego, CA, USA, https://www.graphpad.com .

CCCCCCCC/C=C\CCCCCCCC(=O)O [Oleic acid, Oleic ((9Z)-octadecenoic) acid]
AC activity (%); stimulated by 300nM Gsα, mAC1-C1/mAC2-C2 (Oleic acid 0.3 µM): 100%
AC activity (%); stimulated by 300nM Gsα, mAC1-C1/mAC2-C2 (Oleic acid 1 µM): 93% and 84% and 72%
AC activity (%); stimulated by 300nM Gsα, mAC1-C1/mAC2-C2 (Oleic acid 3 µM): 77% and 90% and 82%
AC activity (%); stimulated by 300nM Gsα, mAC1-C1/mAC2-C2 (Oleic acid 6 µM): 78% and 77% and 84%
AC activity (%); stimulated by 300nM Gsα, mAC1-C1/mAC2-C2 (Oleic acid 10 µM): 68% and 70% and 67%
AC activity (%); stimulated by 300nM Gsα, mAC1-C1/mAC2-C2 (Oleic acid 20 µM): 74% and 77% and 65%
